According to US20250280826A1, “PLANT GROWTH PROMOTER” (KAO CORPORATION, priority 2022, published 2025):

Experiments:
[1] = tested on: soybean (Glycine max); test: Test Example 1: soybean yield (dry grain mass) in field after one foliar spray; type: in vivo
Method: An ascorbic acid aqueous solution prepared by dissolving ascorbic acid in water and an ascorbic acid aqueous solution prepared by dissolving ascorbic acid in deionized water were prepared, and the influence of the ascorbic acid dissolved in water on the application effect for soybean (Glycine max) was examined.
The influence of one foliar spray of 500 mass ppm ascorbic acid on the soybean yield was evaluated. The evaluated test plots 1 to 3 are as shown below. • 1 plot: control (no application) • 2 plot: foliar spray of 500 mass ppm ascorbic acid (dissolved in tap water) • 3 plot: foliar spray of 500 mass ppm ascorbic acid (dissolved in deionized water)
The cultivation of soybean was carried out in a field in Tochigi Prefecture, and the soybean cultivar used was “Sato no Hohoemi.” Of the field, a ridge with a width of 2 m excluding the perimeter was used as one plot, and foliar spray treatment was carried out. […]
The ascorbic acid used was “Food Additive Grade Vitamin C (L-ascorbic acid) Fine Mesh TypeSSS” manufactured by Fuso Chemical Co. Ltd. An aqueous solution of 500 mass ppm ascorbic acid was dissolved in tap water or deionized water for production. […] The dry grain mass was measured as yield data.
After calculating the average grain weight of each plant in one plot, the mean and the standard deviation of three plots were calculated (FIG. 1).

[2] = tested on: soybean; test: Example 2: soybean nodule activity (ureide in exudate) one week after foliar spray; type: in vivo
Method: Medium-term fertilizer effect type culture soil (Takii hydrous cell medium-term fertilizer effect type, Takii & Co., Ltd.) and vermiculite grains (Akagi-Engei Co., Ltd.) were mixed at a volume ratio of 1:1, and the soil was placed in a polypot (diameter: 10.5 cm, height: 9 cm). The soybean seeds used were “Enrei” (purchased from Nikko Seed Co. Ltd.). After tap water was supplied in an amount of 250 mL per pot, 2 seeds per pot were each sown at a depth of from about 1 to 2 cm from the soil surface. The number of repeats in each test plot was 6 (n=6).
1.5% agar (Wako Pure Chemical Industries, Ltd.) was added to Yeast-Mannitol (YM) medium (0.5 g of K2HPO4, 0.2 g of MgSO4-7H2O, 0.1 g of NaCl, 0.4 g of yeast extract, 10 g of mannitol, and 1 L of distilled water (pH: 6.8)) to prepare a solid medium, and a soybean Rhizobium (Bradyrhizobium japonicum) NBRC14783T strain was grown on the solid medium. A platinum loop of the grown Rhizobium was taken and inoculated in 50 mL of YM liquid medium in a Sakaguchi flask with a volume of 500 mL, and shake-cultured at 30° C. for about 36 hours. […]
Exudate components contained in the cotton balls were eluted with ultrapure water and filtered using Micro Biospin chromatography column (Bio-Rad Laboratories, Inc.). […] The 1 000-fold diluted filtrate was quantified. […]

[3] = tested on: legume crops; conditions: total of three foliar sprays, ascorbic acid solution dissolved in distilled water, vegetative or reproductive growth stage; cited from earlier work

## O=C1O[C@H]([C@@H](O)CO)C(O)=C1O [ascorbic acid, (R)-3,4-dihydroxy-5-((S)-1,2-dihydroxyethyl)furan-2(5H)-one]
[1]; 500 mass ppm dissolved in tap water
  effects of ascorbic acid on seed weight: effects of ascorbic acid disappear
[1]; 500 mass ppm, 20 mL per plant, day 60 after sowing, tap water vs deionized water
  effects of tap water and deionized water on the seed weight: different effects
[2]; ascorbic acid 1,500 ppm dissolved in deionized water, soybean early growth stage
  nodule activity: increased
[2]; ascorbic acid 1,500 ppm dissolved in tap water
  application effect of ascorbic acid (nodule activity): tended to decrease
[3]
  increase the yield: up to 30%
